Measured values reported in patent EP0192317A1, “Homocarnosine or acylhomocarnosine salts” (HAMARI YAKUHIN KOGYO KABUSHIKI KAISHA also known as HAMARI …, priority 1985, dated 1986).

What was measured:
[1] = tested on: Water-immersion stress ulcer; experiment: Water-immersion stress ulcer; type: in vivo, Male JCI-SD strain rats; conditions: for Ulcer Index (mm): 400 mg/kg orally 30 minutes before 7 hours immersion in 23°C water, sum of the lengths of the lesions in the body of the stomach; for Inhibition (%): 400 mg/kg orally, inhibition of water-immersion stress ulcer versus No drug
Experimental: After a fasting period of 24 hours, 400 mg/kg of each test compound was orally administered to each animal, and after 30 minutes, the animal was immobilized in a stress cage and was immersed in 23°C water down to the level of the thorax for 7 hours. After this stress loading, the rats was exsanguinated by decapitation and the stomach was excised and fixed in 1% formalin for 15 minutes. Then, an incision was made from the pyrolus along the greater curvature and the lengths of the lesions formed in the body of the stomach were measured using a dissecting microscope (with a scale graduated in 1/100 cm). The sum of the lengths was used as the ulcer index.

[2] = tested on: Pyrolic ligation-induced ulcer; experiment: Pyrolic ligation-induced ulcer (Shay method); type: in vivo, Male Wistar strains rats; conditions: for Inhibition (%): 300 mg/kg intraduodenally immediately after ligation, ulcer in the fore-stomach 13 hours after administration
Experimental: (b) Pyrolic ligation-induced ulcer
Male Wistar strains rats weighing about 300 g were deprived of food for 20 hours, with provision against fecal feeding, and used in groups of 8 animals. The pyrolus of each animal was ligated under ether anesthesia according to the method described by Shay et al. [H.G. Shay, S.A. Komarow, S.S. Felds, D. Meranze, M. Gruenstein, and H. Siplet, Gastroenterology, 5, 43 (1945)], and 300 mg/kg of each test compound was immediately administered intraduodenally. The incision was sutured and 13 hours after drug administration the rat was sacrified by cervical dislocation. The stomach was excised, slightly inflated by an injection of 1% formalin solution, immersed in the same solution for 15 minutes to fix the gastric wall, and then opened along the greater curvature. The ulcer in the fore-stomach was measured under a dissecting microscope .to calculate the ulcer index and the efficacy of the drug was expressed in terms of percent ulcer index.

wound = experiment: Wound healing-promoting activity (tension required for separating the back skin wound); type: in vivo, Male rats; conditions: for Tension: 10 g in 20 ml of peanut oil, 0.05 ml per dose once daily for 10 consecutive days, tension required for separating the wound
Experimental: 2. Wound healing-promoting activity (Method)
Male rats weighing about 180 g-were used in groups of 9 animals. The hair on the back of each rat was clipped with an electric clipper and under ether anesthesia, a wound (20 mm long) was made with a chisel having a 20 mm edge in two positions of the cropped back. A suspension of each test compound (10 g) in 20 ml of peanut oil was applied to the wound in a volume of 0.05 ml per dose once daily for 10 consecutive days. After 10 days, the animal was bled to death by decapitation and the skin of the back was peeled until the wound was separated. The tension (grams) required for separating the wound was measured as an indicator of drug efficacy.

Wistar strain rats = experiment: Acute toxicity study; type: in vivo; conditions: orally 5 g/kg, observed for 7 days, rats of either sex
Excerpt: Wistar strain rats of either sex weighing 150 to 200 g were used in groups of 7 animals.

Compound | Ulcer Index (mm) [1] [mm] | Inhibition (%) [1] [%] | Inhibition (%) [2] [%] | Tension (wound) [g] | death (Wistar strain rats) | antiulcer potency among the compounds tested (in words) ([2]; summary of Tables I and II) | wound healing-promoting effect (in words) (wound; summary of Table III)
CN/C(=N/CCSCc1nc[nH]c1C)NC#N [Cimetidine, reference compound] | 4.02 | 60.7 |  |  |  |  | 
NCCCC(=O)N[C@@H](Cc1cnc[nH]1)C(=O)O [Homocarnosine, L-homocarnosine] | 8.81 | 13.9 | 6.2 | 218.78 | No death |  | 
CC(=O)NCCCC(=O)N[C@@H](Cc1cnc[nH]1)C(=O)O [N-Acetyl-L-Homocarnosine, N-acetyl-L-homocarnosine, reference compound] | 9.95 | 6.7 | 2.4 | 207.45 | No death |  | 
(L-homocarnosine)2 zinc salt [(Homocarnosine)2 Zn] | 6.34 | 38.0 |  |  |  |  | 
(N-acetyl-L-homocarnosine)2 zinc salt [(N-Acetyl-L-Homocarnosine)2 Zn] | 8.32 | 18.7 |  |  |  |  | 
Basic aluminum sucrose sulfate [reference compound] | 8.54 | 16.6 | 4.7 |  |  |  | 
Carnosine Zn [reference compound] | 4.61 | 54.9 | 39.2 |  |  |  | 
L-homocarnosine aluminum salt [(Homocarnosine)2 AlOH] | 7.76 | 24.2 |  |  |  |  | 
L-homocarnosine aluminum salt [(Homocarnosine)3 Al] | 8.24 | 19.5 |  |  |  |  | 
L-homocarnosine aluminum salt [Homocarnosine Al(OH)2] | 7.10 | 30.6 | 11.2 | 220.28 |  |  | 
L-homocarnosine zinc salt [Homocarnosine Zn] | 3.85 | 62.4 | 46.2 | 249.36 |  | the most potent | particularly excellent
N-acetyl-L-homocarnosine aluminum salt [(N-Acetyl-L-Homocarnosine)2 Al] | 8.46 | 17.3 |  |  |  |  | 
N-acetyl-L-homocarnosine aluminum salt [N-Acetyl-L-Homocarnosine Al(OH)2] | 5.40 | 47.2 | 38.7 | 203.57 |  |  | 
N-acetyl-L-homocarnosine zinc salt [N-Acetyl-L-Homocarnosine Zn] | 7.06 | 31.0 | 22.1 | 233.64 |  |  | 
